SMILES strings stand for the structures.

Our source for the IC50 values is ChEMBL document CHEMBL4476874, “Compounds for the modulation of myc activity” (2018).

Sequence of Myc proto-oncogene protein (P01106 whole entry): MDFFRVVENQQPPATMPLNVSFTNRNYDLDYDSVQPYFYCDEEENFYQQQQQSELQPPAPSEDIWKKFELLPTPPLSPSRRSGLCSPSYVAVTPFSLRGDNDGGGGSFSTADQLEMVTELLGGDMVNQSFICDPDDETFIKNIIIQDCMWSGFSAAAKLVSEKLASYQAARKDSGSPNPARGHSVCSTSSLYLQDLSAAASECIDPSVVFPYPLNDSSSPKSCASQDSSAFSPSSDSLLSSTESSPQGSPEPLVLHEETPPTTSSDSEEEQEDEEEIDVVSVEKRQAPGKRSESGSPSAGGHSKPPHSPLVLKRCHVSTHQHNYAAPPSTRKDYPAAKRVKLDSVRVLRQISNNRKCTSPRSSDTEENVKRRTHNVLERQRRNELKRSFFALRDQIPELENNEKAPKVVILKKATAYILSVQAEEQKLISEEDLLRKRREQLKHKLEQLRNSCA

The assay concerns the target Myc proto-oncogene protein (Homo sapiens, UniProt P01106). As to the kind of experiment: Inhibition of human c-Myc assessed as reduction in c-Myc/Max/Ebox DNA complex formation using pre-formed complex of c-Myc and biotinylated DNA containing single Ebox-sequence followed by compound addition and further addition of his6-tagged c-Max and incubated for 2 hrs by AlphaScreen assay. In general terms: In Alpha technology, singlet oxygen from a donor bead excites a nearby acceptor bead.
The term IC50 denotes the concentration at which inhibition is half-maximal. Turning to `COCCNCCC(=O)Nc1sc2c(c1-c1nc3cc(-c4ccccc4O)ccc3s1)CCNC2`, the IC50 was 1 to 10 µM.
Take `CNS(=O)(=O)c1ccccc1-c1ccc2sc(-c3c(NC(=O)CCNCCOC)sc4c3CCNC4)nc2c1`: the IC50 was over 10 µM.
The result for `CC(C)NCCC(=O)Nc1sc2c(c1-c1nc3cc(-c4nn[nH]n4)ccc3s1)CCNC2` reads under 0.3 µM.
The result for `CC(C)N1CCc2c(sc(NC(=O)CCNc3cccc(F)c3)c2-c2nc3ccccc3s2)C1` reads over 10 µM.
To `COCCNCCC(=O)Nc1sc2c(c1-c1nc3ccc(-c4cc5cccc(OC)c5[nH]4)cc3s1)CCNC2` belongs 1 to 10 µM.
On to `CNC(=O)Nc1ccc(-c2ccc3sc(-c4c(NC(=O)CCNCCOC)sc5c4CCNC5)nc3c2)cc1`, for which the IC50 was 1 to 10 µM.
The result for `COCCNCCC(=O)Nc1sc2c(c1-c1nc3ccc(-c4ccc(OC(C)C)nc4)cc3s1)CCNC2` reads over 10 µM; that for `COCCNCCC(=O)Nc1sc2c(c1-c1nc3ccc(-c4c(C)n[nH]c4C)cc3s1)CCNC2`, over 10 µM.
The result for `COc1ccc(-c2ccc3sc(-c4c(NC(=O)CCNC(C)C)sc5c4CCNC5)nc3c2)cc1` reads under 0.3 µM; that for `COCCNCCC(=O)Nc1sc2c(c1-c1nc3ccc(-c4cc(F)cnc4OC)cc3s1)CCNC2`, over 10 µM; that for `COCCNCCC(=O)Nc1sc2c(c1-c1nc3cc(-c4ccc5c(c4)OCO5)ccc3s1)CCNC2`, over 10 µM.
To `COCCNCCC(=O)Nc1sc2c(c1-c1nc3ccc(-c4cncc(OCCOC)c4)cc3s1)CCNC2` belongs over 10 µM; to `COCCNCCC(=O)Nc1sc2c(c1-c1nc3cc(-c4ccc5c(=O)[nH]ccc5c4)ccc3s1)CCNC2`, over 10 µM.
In the case of `COCCNCCC(=O)Nc1sc2c(c1-c1nc3ccc(-c4cccnc4F)cc3s1)CCNC2`, the IC50 was over 10 µM.
To `COCCNCCC(=O)Nc1sc2c(c1-c1nc3ccc(-c4ccc(OC)nc4)cc3s1)CCNC2` belongs 1 to 10 µM; to `COCCNCCC(=O)Nc1sc2c(c1-c1nc3ccc(-c4ccncc4Cl)cc3s1)CCNC2`, over 10 µM; to `COCCNCCC(=O)Nc1sc2c(c1-c1nc3ccc(-c4cnc(OC)nc4)cc3s1)CCNC2`, 1 to 10 µM.
To `COCCNCCC(=O)Nc1sc2c(c1-c1nc3ccc(-c4ccc5c(c4)NC(=O)CO5)cc3s1)CCNC2` belongs over 10 µM; to `CC(C)N1CCc2c(sc(NC(=O)CCNc3ccc(-c4nnn[nH]4)cc3)c2-c2nc3ccccc3s2)C1`, over 10 µM; to `COCCNCCC(=O)Nc1sc2c(c1-c1nc3ccc(-c4cnc(N5CCOCC5)nc4)cc3s1)CCNC2`, over 10 µM.
The result for `COCCNCCC(=O)Nc1sc2c(c1-c1nc3ccc(-c4ccc(C(=O)N(C)C)cc4F)cc3s1)CCNC2` reads 0.3 to 1 µM.
`COCCNCCC(=O)Nc1sc2c(c1-c1nc3ccc(-c4ccccc4Cl)cc3s1)CCNC2`: the IC50 was over 10 µM.
The result for `COCCNCCC(=O)Nc1sc2c(c1-c1nc3cc(-c4cnc(OC)c(OC)c4)ccc3s1)CCNC2` reads 1 to 10 µM; that for `COCCNCCC(=O)Nc1sc2c(c1-c1nc3ccc(-c4ccc(OC)c(OC)c4)cc3s1)CCNC2`, over 10 µM.
To `COCCNCCC(=O)Nc1sc2c(c1-c1nc3cc(-c4ccccc4Cl)ccc3s1)CCNC2` belongs 1 to 10 µM.
As to `CC(NCCC(=O)Nc1sc2c(c1-c1nc3ccccc3s1)CCN(C(C)C)C2)c1ccncc1` (stereo not given), the IC50 was in the range of 1 to 10 µM.
The result for `COCCNCCC(=O)Nc1sc2c(c1-c1nc3ccc(-c4cccnc4OC)cc3s1)CCNC2` reads 1 to 10 µM; that for `COCCNCCC(=O)Nc1sc2c(c1-c1nc3ccc(-c4cncc(C#N)c4)cc3s1)CCNC2`, 1 to 10 µM; that for `COCCNCCC(=O)Nc1sc2c(c1-c1nc3cc(-c4cccc5cccnc45)ccc3s1)CCNC2`, over 10 µM.
The result for `COCCNCCC(=O)Nc1sc2c(c1-c1nc3ccc(-c4ccccc4NS(C)(=O)=O)cc3s1)CCNC2` reads over 10 µM; that for `COCCNCCC(=O)Nc1sc2c(c1-c1nc3cc(-c4ccc5cnn(C)c5c4)ccc3s1)CCNC2`, 0.3 to 1 µM.
The result for `CCOc1ncccc1-c1ccc2nc(-c3c(NC(=O)CCNCCOC)sc4c3CCNC4)sc2c1` reads over 10 µM; that for `COCCNCCC(=O)Nc1sc2c(c1-c1nc3ccc(-c4ccc5ncnn5c4)cc3s1)CCNC2`, 1 to 10 µM.
With `COCCNCCC(=O)Nc1sc2c(c1-c1nc3ccc(-c4cccc(C(F)(F)F)c4)cc3s1)CCNC2`, the IC50 is over 10 µM.
In the case of `COCCNCCC(=O)Nc1sc2c(c1-c1nc3cc(-c4ccc(OC)nc4C)ccc3s1)CCNC2`, the IC50 was over 10 µM.
Consider `COCCNCCC(=O)Nc1sc2c(c1-c1nc3cc(-c4cc(F)cnc4OC)ccc3s1)CCNC2`, for which the IC50 lay in the range of 1 to 10 µM.
To `COCCNCCC(=O)Nc1sc2c(c1-c1nc3ccc(-c4c(C)nn(C)c4C)cc3s1)CCNC2` belongs over 10 µM.
The result for `O=C(CC1COCCN1)Nc1sc2c(c1-c1nc3ccccc3s1)CCNC2` (stereo not given) reads 0.3 to 1 µM; that for `CCC(C)N(CCC(=O)Nc1sc2c(c1-c1nc3ccccc3s1)CCN(C(C)C)C2)C(=O)OC(C)(C)C` (stereo not given), over 10 µM; that for `COCCNCCC(=O)Nc1sc2c(c1-c1nc3cc(-c4ccc(C)nc4OC)ccc3s1)CCNC2`, 1 to 10 µM.
The result for `COCCNCCC(=O)Nc1sc2c(c1-c1nc3ccc(-c4ccc(F)nc4F)cc3s1)CCNC2` reads over 10 µM; that for `COCCNCCC(=O)Nc1sc2c(c1-c1nc3cc(-c4cccc(C(F)(F)F)c4)ccc3s1)CCNC2`, over 10 µM; that for `COCCNCCC(=O)Nc1sc2c(c1-c1nc3ccc(-c4ccccc4S(C)(=O)=O)cc3s1)CCNC2`, over 10 µM.
For `COCCNCCC(=O)Nc1sc2c(c1-c1nc3ccc(-c4c(F)cccc4F)cc3s1)CCNC2`, the IC50 is over 10 µM.
The result for `CNc1ncc2cc(-c3ccc4sc(-c5c(NC(=O)CCNCCOC)sc6c5CCNC6)nc4c3)ccc2n1` reads over 10 µM.
The result for `COCCNCCC(=O)Nc1sc2c(c1-c1nc3ccc(-c4ccnc(C(F)(F)F)c4)cc3s1)CCNC2` reads over 10 µM.
To `CC(C)N1CCc2c(sc(NC(=O)CCN3CCc4ccccc4C3)c2-c2nc3ccccc3s2)C1` belongs over 10 µM.
As for `COCCNCCC(=O)Nc1sc2c(c1-c1nc3ccc(-c4ccc(OC)nc4C)cc3s1)CCNC2`, the IC50 was over 10 µM.
On to `O=C(CC1CCCN1)Nc1sc2c(c1-c1nc3ccccc3s1)CCNC2` (stereo not given), for which the IC50 is 0.3 to 1 µM.
To `COCCNCCC(=O)Nc1sc2c(c1-c1nc3ccc(-c4cnccc4C)cc3s1)CCNC2` belongs over 10 µM.
To `COCCNCCC(=O)Nc1sc2c(c1-c1nc3ccc(-c4cnccc4OC)cc3s1)CCNC2` belongs over 10 µM.
The result for `COCCNCCC(=O)Nc1sc2c(c1-c1nc3cc(-c4c(C)n[nH]c4C)ccc3s1)CCNC2` reads 1 to 10 µM.
`CC(C)NCCC(=O)Nc1sc2c(c1-c1nc3cc(C(C)O)ccc3s1)CCNC2` (stereo not given): the IC50 was under 0.3 µM.
The result for `COCCNCCC(=O)Nc1sc2c(c1-c1nc3ccc(-c4ccc(O)c(F)c4)cc3s1)CCNC2` reads over 10 µM; that for `COCCNCCC(=O)Nc1sc2c(c1-c1nc3ccc(-c4cnn(Cc5ccccc5)c4)cc3s1)CCNC2`, 1 to 10 µM.
To `COCCNCCC(=O)Nc1sc2c(c1-c1nc3ccc(-c4cc5ccccc5[nH]4)cc3s1)CCNC2` belongs over 10 µM; to `COCCNCCC(=O)Nc1sc2c(c1-c1nc3c(N4CCCC4)cccc3s1)CCNC2`, under 0.3 µM; to `COCCNCCC(=O)Nc1sc2c(c1-c1nc3ccc(-c4ccc(C)nc4OC)cc3s1)CCNC2`, over 10 µM.
To `CC(=O)Nc1ccc(-c2ccc3sc(-c4c(NC(=O)CCNC(C)C)sc5c4CCNC5)nc3c2)cc1` belongs 0.3 to 1 µM; to `COCCNCCC(=O)Nc1sc2c(c1-c1nc3ccc(-c4cccc(C#N)c4)cc3s1)CCNC2`, 1 to 10 µM.
For `COCCNCCC(=O)Nc1sc2c(c1-c1nc3cc(-c4cccc5[nH]ncc45)ccc3s1)CCNC2`, the IC50 is 1 to 10 µM.
The result for `COCCNCCC(=O)Nc1sc2c(c1-c1nc3ccc(-c4cccc5cccnc45)cc3s1)CCNC2` reads over 10 µM; that for `COCCNCCC(=O)Nc1sc2c(c1-c1nc3ccc(-c4ccc(C(F)(F)F)nc4)cc3s1)CCNC2`, over 10 µM; that for `COCCNCCC(=O)Nc1sc2c(c1-c1nc3cc(-c4cc5cccc(OC)c5[nH]4)ccc3s1)CCNC2`, 1 to 10 µM.
The result for `COCCNCCC(=O)Nc1sc2c(c1-c1nc3ccc(-c4cncc(OC)c4)cc3s1)CCNC2` reads 1 to 10 µM.
The result for `COCCNCCC(=O)Nc1sc2c(c1-c1nc3cc(-c4ccc(N5CCNCC5)nc4)ccc3s1)CCNC2` reads under 0.3 µM; that for `COCCNCCC(=O)Nc1sc2c(c1-c1nc3c(C)cccc3o1)CCNC2`, 0.3 to 1 µM; that for `COc1cccc(NCCC(=O)Nc2sc3c(c2-c2nc4ccccc4s2)CCN(C(C)C)C3)c1`, 1 to 10 µM.
Consider `COCCNCCC(=O)Nc1sc2c(c1-c1nc3cc(-c4ccc(S(=O)(=O)NC5CC5)cc4)ccc3s1)CCNC2`, for which the IC50 was over 10 µM.
The result for `COCCNCCC(=O)Nc1sc2c(c1-c1nc3ccc(-c4ccc(N5CCOCC5)nc4)cc3s1)CCNC2` reads over 10 µM; that for `COCCNCCC(=O)Nc1sc2c(c1-c1nc3ccc(-c4ccc(C(=O)OC)nc4)cc3s1)CCNC2`, 1 to 10 µM; that for `CC(C)NCCC(=O)Nc1sc2c(c1-c1nc3cc(-c4ccccc4)ccc3s1)CCNC2`, 0.3 to 1 µM.
To `COCCNCCC(=O)Nc1sc2c(c1-c1nc3ccc(-c4ccc5ncccc5c4)cc3s1)CCNC2` belongs over 10 µM; to `COCCNCCC(=O)Nc1sc2c(c1-c1nc3cc(-c4ccccc4NC(C)=O)ccc3s1)CCNC2`, over 10 µM.
To `O=C(Nc1sc2c(c1-c1nc3ccccc3s1)CCNC2)C1CNC1` belongs under 0.3 µM.
`COCCNCCC(=O)Nc1sc2c(c1-c1nc3cc(-c4ccc(O)c(F)c4)ccc3s1)CCNC2`: the IC50 is over 10 µM.
To `COCCNCCC(=O)Nc1sc2c(c1-c1nc3cc(-c4ccncc4Cl)ccc3s1)CCNC2` belongs over 10 µM; to `COCCNCCC(=O)Nc1sc2c(c1-c1nc3ccc(-c4cccc5[nH]ncc45)cc3s1)CCNC2`, 1 to 10 µM.
The result for `COCCNCCC(=O)Nc1sc2c(c1-c1nc3ccc(-c4ccc(S(=O)(=O)NC5CC5)cc4)cc3s1)CCNC2` reads over 10 µM; that for `CC(C)NCCC(=O)Nc1sc2c(c1-c1nc3cc(-n4cncn4)ccc3s1)CCNC2`, under 0.3 µM.
